Results on 26 molecules are retold here after ChEMBL document CHEMBL4000175, “Biology-oriented drug synthesis (BIODS): In vitro β-glucuronidase inhibitory and in silico studies on 2-(2-methyl-5-nitro-1H-imidazol-1-yl)ethyl aryl carboxylate derivatives” (Eur J Med Chem, 2017).

One assay has as its target T1, Beta-glucuronidase (Bos taurus, UniProt A3KMY8).
T1 sequence (A3KMY8 whole entry): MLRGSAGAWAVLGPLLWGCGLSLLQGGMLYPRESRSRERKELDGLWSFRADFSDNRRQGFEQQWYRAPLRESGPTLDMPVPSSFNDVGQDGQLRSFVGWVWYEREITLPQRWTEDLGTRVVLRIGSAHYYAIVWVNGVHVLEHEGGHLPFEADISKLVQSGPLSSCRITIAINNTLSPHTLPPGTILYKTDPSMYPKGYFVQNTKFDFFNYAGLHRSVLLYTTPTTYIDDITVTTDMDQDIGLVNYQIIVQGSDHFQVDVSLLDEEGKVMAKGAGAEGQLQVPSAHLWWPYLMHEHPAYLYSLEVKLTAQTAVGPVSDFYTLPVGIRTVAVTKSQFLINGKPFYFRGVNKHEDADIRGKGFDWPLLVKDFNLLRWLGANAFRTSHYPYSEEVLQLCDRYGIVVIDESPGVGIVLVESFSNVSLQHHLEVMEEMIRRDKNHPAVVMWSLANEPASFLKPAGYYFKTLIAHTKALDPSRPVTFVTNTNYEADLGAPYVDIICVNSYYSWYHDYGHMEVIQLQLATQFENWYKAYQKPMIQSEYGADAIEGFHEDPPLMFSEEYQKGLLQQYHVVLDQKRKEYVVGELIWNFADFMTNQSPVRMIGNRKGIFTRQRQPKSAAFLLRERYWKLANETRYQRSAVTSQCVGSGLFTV
Nature of the assay: Inhibition of bovine liver beta glucuronidase using p-nitrophenyl-beta-D-glucuronide as substrate preincubated for 30 mins followed by substrate addition by spectrophotometric method.

Assay [1] deals with T2, Beta-glucuronidase (Bos taurus) (UniProt A3KMY8).
T2 sequence (whole entry): T1 sequence (A3KMY8 whole entry)
Nature of the assay: Potency index, ratio of D-saccharic acid 1,4-lactone IC50 to compound IC50 for bovine liver beta glucuronidase.

As a reminder, the IC50 is the midpoint of a concentration-inhibition curve.

As for `Cc1ncc([N+](=O)[O-])n1CCOC(=O)c1cccc([N+](=O)[O-])c1`, on Beta-glucuronidase (read-out: IC50), the IC50 stood at 27.6 µM.

For the molecule `Cc1ncc([N+](=O)[O-])n1CCOC(=O)c1ccc(F)cc1`, the concentration for half-maximal inhibition (IC50) on Beta-glucuronidase (read-out: IC50) came out at 12.4 µM. Take `Cc1ncc([N+](=O)[O-])n1CCOC(=O)c1ccc([N+](=O)[O-])cc1`: the IC50 on Beta-glucuronidase (read-out: IC50) amounted to 8.9 µM. For `Cc1cc(C(=O)OCCn2c([N+](=O)[O-])cnc2C)ccc1[N+](=O)[O-]`, in assay [1], the Ratio IC50 is 7. At Beta-glucuronidase (read-out: IC50), the half-maximal inhibitory concentration (IC50) is 7.3 µM. Turning to `Cc1ncc([N+](=O)[O-])n1CCOC(=O)c1cccc2ccccc12`, on Beta-glucuronidase, the half-inhibitory concentration (IC50) entry is “Not Active”. Turning to `Cc1ncc([N+](=O)[O-])n1CCOC(=O)c1ccc2ccccc2c1`, at Beta-glucuronidase, the half-inhibitory concentration (IC50) result was “Not Active”. Turning to `Cc1cc(C)cc(C(=O)OCCn2c([N+](=O)[O-])cnc2C)c1`, at Beta-glucuronidase (read-out: IC50), the concentration for half-maximal inhibition (IC50) turned out to be 24.2 µM. In the case of `COc1cc(OC)cc(C(=O)OCCn2c([N+](=O)[O-])cnc2C)c1`, at Beta-glucuronidase (read-out: IC50), the IC50 turned out to be 60.3 µM. In the case of `Cc1ccccc1C(=O)OCCn1c([N+](=O)[O-])cnc1C`, the IC50 at Beta-glucuronidase (read-out: IC50) turned out to be 44.2 µM. `CCCCOc1ccc(C(=O)OCCn2c([N+](=O)[O-])cnc2C)cc1`: the IC50 result against Beta-glucuronidase was “Not Active”. `Cc1cccc(C(=O)OCCn2c([N+](=O)[O-])cnc2C)c1`: the half-maximal inhibitory concentration (IC50) result against Beta-glucuronidase is on record as “Not Active”. Take `Cc1ncc([N+](=O)[O-])n1CCOC(=O)c1cc(Cl)ccc1Cl`: the 50% inhibitory concentration (IC50) at Beta-glucuronidase (read-out: IC50) turned out to be 6.2 µM. The same measure, in the same setting: for `Cc1ccc(C(=O)OCCn2c([N+](=O)[O-])cnc2C)cc1` the value was 35.5 µM.

With `Cc1ncc([N+](=O)[O-])n1CCOC(=O)c1ccccc1Br`, at Beta-glucuronidase (read-out: IC50), the IC50 turned out to be 48.5 µM. Turning to `Cc1ncc([N+](=O)[O-])n1CCOC(=O)c1cccc(F)c1`, the IC50 on Beta-glucuronidase (read-out: IC50) turned out to be 8.1 µM. In the case of `Cc1ncc([N+](=O)[O-])n1CCOC(=O)c1ccc(Br)cc1`, the IC50 at Beta-glucuronidase (read-out: IC50) was 42.6 µM.

Take `Cc1ncc([N+](=O)[O-])n1CCOC(=O)c1cccnc1`: the IC50 at Beta-glucuronidase (read-out: IC50) came out at 32.6 µM. The same measure, in the same setting: the figure for `Cc1ncc([N+](=O)[O-])n1CCOC(=O)c1ccccc1Cl` is 19.3 µM.

For the molecule `COc1ccc(C(=O)OCCn2c([N+](=O)[O-])cnc2C)cc1`, at Beta-glucuronidase (read-out: IC50), the concentration for half-maximal inhibition (IC50) stood at 60.2 µM. `Cc1ncc([N+](=O)[O-])n1CCOC(=O)c1cccc(Cl)c1`: at Beta-glucuronidase (read-out: IC50), the IC50 is 16.3 µM. For the molecule `Cc1ncc([N+](=O)[O-])n1CCOC(=O)c1ccc2ncsc2c1`, the Ratio IC50 in assay [1] worked out at 6. Further, the IC50 on Beta-glucuronidase (read-out: IC50) stood at 8.4 µM. As for `COc1ccc(/C=C/C(=O)OCCn2c([N+](=O)[O-])cnc2C)cc1`, the IC50 at Beta-glucuronidase (read-out: IC50) stood at 31.1 µM.

With `Cc1ncc([N+](=O)[O-])n1CCOC(=O)c1ccc(F)cc1Br`, the IC50 on Beta-glucuronidase (read-out: IC50) was found to be 6.3 µM.

Turning to `Cc1ncc([N+](=O)[O-])n1CCOC(=O)c1cc2ccccc2[nH]1`, in assay [1], the Ratio IC50 was determined as 24. In addition, the IC50 on Beta-glucuronidase (read-out: IC50) is 2.1 µM.

With `Cc1ncc([N+](=O)[O-])n1CCOC(=O)c1ccc(Cl)c(Cl)c1`, in assay [1], the Ratio IC50 was determined as 15. For the same molecule, the IC50 at Beta-glucuronidase (read-out: IC50) came to 3.6 µM.

As to `Clc1ccc(-c2nc3ccccc3[nH]2)cc1Cl`, the half-inhibitory concentration (IC50) on Beta-glucuronidase (read-out: IC50) was 6.33 µM.
